Experimental findings from patent publication US6884810B2, “Benzimidazole derivatives” (Zeria Pharmaceutical Co., Ltd., priority 2001, dated 2005) are described below.

Series [1] concerns the target T1, CYP2C19 (Homo sapiens, UniProt P33261).
T1 construct: purchased Sumitomo Chemical Co., Ltd; host or cells: yeast (microsomes)
Briefly: Human CYP2C19 activity inhibition test (S-(+)-mephenytoin to 4'-hydroxymephenytoin). The format is in vitro ADME. To be noted: test compound 10 μM, human CYP2C19 yeast expression system microsome, 4'-hydroxymephenytoin generated vs control; for CYP2C19 residual activity (%): 10 µM. The method, then: (Human CYP2C19 Activity Inhibition Test)
CYP2C19 specifically participates in the metabolism reaction from S-(+)-mephenytoin to 4′-hydroxymephenytoin. Therefore, by use of an expression system CYP2C19, the production amount (concentration) of 4′-hydroxymephenytoin, serving as an index for CYP2C19 activity, was determined, whereby the inhibitory action of respective test substances was investigated.
(a) Metabolizing Activity Test
A solution of S-(+)-mephenytoin in methanol (125 μmol/L, 50 μL) and a solution of a test substance in methanol (25 μmol/L, 0, 10, 100, or 200 μL) were placed in a 10-mL glass test tube. The solvent was removed under a nitrogen gas at 40° C. A 75 μL mixture of 0.5M phosphate buffer (pH 7.4)-0.5 mM EDTA (20:10), 140 μL purified water, and 10 μL human CYP2C19 yeast expression system microsome (purchased from Sumitomo Chemical Co., Ltd.) were added.
Incubation was performed for 10 minutes at 37° C. Subsequently, aqueous 12% perchloric acid solution (50 μL) was added, to thereby stop the reaction.
After the reaction was stopped, an internal standard substance (I.S.) methyl p-hydroxybenzoate (100 μg/ mL, 50 μL), and diethyl ether (2 mL) were added. The mixture was shaken for 10 minutes, followed by centrifugation at 3,000 rpm for 10 minutes. The organic layer was separated, and the solvent was removed under a nitrogen gas at 40° C. The residue was dissolved in a 200 μL mobile phase, and the mixture was subjected to analysis by high performance liquid chromatography (HPLC).
In order to generate a calibration curve, the general procedure of the above process was repeated by use of 4′-hydroxymephenytoin solution instead of the S-(+)-mephenytoin solution. Quantitation was performed on the basis of the peak area ratio of 4′-hydroxymephenytoin to I.S. The amount of 4′-hydroxymephenytoin generated in the control sample was compared with that generated in the present of a test compound, and the results of comparison were used as an activity index.
HPLC was performed under the conditions described below (HPLC conditions A or HPLC conditions B).

Series [2] deals with T2, H+/K+-ATPase (Sus scrofa, UniProt P19156).
T2 construct: The mucous membrane layer was homogenized in Tris-HCl buffer; from tissue; host or cells: pig stomach body, mucous membrane layer, membrane fraction from a sucrose interface
T2 sequence (P19156 2-1034 limits assumed): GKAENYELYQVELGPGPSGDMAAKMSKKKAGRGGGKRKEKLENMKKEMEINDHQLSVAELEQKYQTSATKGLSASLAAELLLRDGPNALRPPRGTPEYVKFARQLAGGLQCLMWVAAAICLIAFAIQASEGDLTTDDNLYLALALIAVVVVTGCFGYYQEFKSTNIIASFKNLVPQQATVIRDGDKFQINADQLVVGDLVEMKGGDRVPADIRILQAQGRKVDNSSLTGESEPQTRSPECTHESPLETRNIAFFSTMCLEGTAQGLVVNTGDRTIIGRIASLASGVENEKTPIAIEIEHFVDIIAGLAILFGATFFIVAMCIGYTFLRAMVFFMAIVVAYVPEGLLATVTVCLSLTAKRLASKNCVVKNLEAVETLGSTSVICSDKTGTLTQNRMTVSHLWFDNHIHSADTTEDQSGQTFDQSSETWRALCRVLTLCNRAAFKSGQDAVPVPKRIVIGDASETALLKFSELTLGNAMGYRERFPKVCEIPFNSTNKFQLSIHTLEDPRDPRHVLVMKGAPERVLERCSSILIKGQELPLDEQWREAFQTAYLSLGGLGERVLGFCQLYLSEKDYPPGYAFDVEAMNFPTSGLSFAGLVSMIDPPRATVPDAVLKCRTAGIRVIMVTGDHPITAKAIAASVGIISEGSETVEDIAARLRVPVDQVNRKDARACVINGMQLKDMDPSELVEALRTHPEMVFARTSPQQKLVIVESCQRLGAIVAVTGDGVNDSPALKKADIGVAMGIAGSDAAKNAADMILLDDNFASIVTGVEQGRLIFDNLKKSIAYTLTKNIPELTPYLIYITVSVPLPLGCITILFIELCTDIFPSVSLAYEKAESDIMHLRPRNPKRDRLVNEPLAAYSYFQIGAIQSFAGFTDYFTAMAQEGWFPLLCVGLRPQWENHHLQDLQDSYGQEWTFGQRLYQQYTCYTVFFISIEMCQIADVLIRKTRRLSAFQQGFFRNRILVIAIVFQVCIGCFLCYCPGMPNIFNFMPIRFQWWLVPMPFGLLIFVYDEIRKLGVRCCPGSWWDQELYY
T2 sequence (P18434 whole entry partner): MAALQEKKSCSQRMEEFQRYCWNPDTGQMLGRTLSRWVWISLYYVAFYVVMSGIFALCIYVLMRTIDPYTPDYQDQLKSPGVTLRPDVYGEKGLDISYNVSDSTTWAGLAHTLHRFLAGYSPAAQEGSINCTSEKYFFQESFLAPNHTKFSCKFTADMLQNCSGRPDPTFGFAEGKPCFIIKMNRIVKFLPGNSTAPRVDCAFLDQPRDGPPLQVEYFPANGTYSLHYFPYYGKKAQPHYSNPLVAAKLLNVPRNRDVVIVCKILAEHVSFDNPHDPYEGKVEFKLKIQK
The experiment in a line: Proton pump inhibitory action: activity of inhibiting H+/K+-ATPase (at pH 1). It is filed as biochemical. Particulars: pig gastric mucosa enzyme sample; test compounds pretreated in hydrochloric acid solution pH 1 (50% DMSO) for 15 minutes; read-out: Proton pump inhibitory action [IC50 (μmol/L)]. From the text: (Proton Pump Inhibitory Action)
(1) Preparation of Enzyme Sample (H^+/K^+-ATPase)
The stomach body removed from a pig, which had been stored in a frozen state, was separated into a muscle layer and a mucous membrane layer. The mucous membrane layer was homogenized in Tris-HCl buffer (20 mmol/L, pH 7.4) having a volume 5 times that of the layer and containing sucrose (0.25 mol/L) and EGTA (1 mmol/L) (hereinafter the mixture is referred to as Tris-HCl buffer) in a mixer. The homogenate was subjected to centrifugation (9,000×g, 30 minutes). The supernatant was softly placed on 8 mL Tris-HCl buffer (20 mmol/L, pH 7.4) containing 30% sucrose and 1 mmol/L EGTA. The mixture was subjected to ultracentrifugation at 100,000×g for 60 minutes. The interface fraction obtained through centrifugation was subjected to centrifugation (113,000×g, 60 minutes) twice. Pellet was suspended in Tris-HCl buffer, and the suspension was homogenized at low speed. The resultant homogenate served as an enzyme sample of interest and was stored at −80° C. The protein content of the sample was quantitated through use of a BCA protein assay reagent in accordance with a method described by Smith et al. (Anal. Biochem., 150, 76-85 (1985)). All these steps were performed under cooling with an ice bath.
(2) Activity of inhibiting H^+/K^+-ATPase (at pH 1)
Activity of inhibiting H^+/K^+-ATPase was measured in accordance with a method described in Biochem. Biophys. Res. Commun., 40, 880-886 (1970). Specifically, ATP was employed as a substrate, and inorganic phosphate, which is a resultant degradation product, was quantitated. In consideration of the solubility of test compounds, the test compounds were preliminarily treated with a hydrochloric acid solution (containing 50% DMSO, 1×10^−1 mol/L, pH 1). Each of the test compounds having different concentrations was added to the hydrochloric acid solution to thereby yield a 1,000—fold dilution, and thereafter, the diluted compound was allowed to stand for 15 minutes at room temperature. After these preliminary remedies, a 10 μL solution that had undergone the above preliminary remedies were added to 840 μL Tris-acetate buffer (40 mmol/L, pH 7.5, containing 2 mmol/L MgCl2, may be referred to as TE buffer) containing or not containing 20 mmol/L KCl. Subsequently, a 100 μL enzyme solution (5 μg protein) diluted with the TE buffer was added. Incubation was performed for 30 minutes at 37° C. Thereafter, a 50 μL ATP solution (40 mmol/L) which was dissolved in TE buffer not containing KCl was added to initiate enzyme reaction (total volume: 1 mL, ATP final concentration: 2 mmol/L). Incubation was performed for 30 minutes at 37° C. Subsequently, ice-cold 12% trichloroacetic acid (2 mL) was added, to thereby stop the enzyme reaction. A molybdenum reagent (1 mL, 3.75% ammonium molybdate/1.5 mol/L sulfuric acid) and butyl acetate (5 mL) were added, followed by mixing under vigorous shaking for 5 minutes. The absorption of the butyl acetate layer was measured at 310 nm. A standard curve was determined on the basis of absorption obtained through the similar procedure by use of KH2PO4 at different concentrations dissolved in 8% TCA solution, and inorganic phosphate content was calculated. Samples to be measured were prepared in duplicate. The measurements were averaged, and residual activity was obtained from the difference between the inorganic phosphate content as determined in a sample containing KCl and that as determined in a sample not containing KCl. Percentage inhibition activity was calculated with respect to the activity obtained from a control sample (DMSO), which was considered 100%. As the inhibitory potency of each test compound, IC50 values were computed and shown. All the test compounds were dissolved in dimethyl sulfoxide immediately before use.

Series [3] relates to gastric acid secreted under stimulation with histamine. The experiment in a line: Gastric acid secretion inhibition action, histamine-stimulated, acute Fistula method. The format is in vivo, Sprague-Dawley (SD) rats. Particulars: SD rats, administered in the duodenum, histamine 8 mg/kg/h, total acid discharge at 3, 4 and 5 hours, Probit method. How it is done:
(Gastric Acid Secretion Inhibition Action)
(1) Test Animals Employed were Sprague-Dawley (SD) Rats (7 Weeks Old, Male) Purchased from Charles River Japan, Inc. Before the Test, the Rats Were Fed for 5 Days or More.
Each test drug was suspended in, or dissolved in, 0.5% sodium carboxymethylcellulose solution, whereby a suspension or solution was prepared so as to attain 2.5 mL/kg.
(2) Measurement of Gastric Acid Secretion
The amount of gastric acid secreted under stimulation with histamine was measured on the rats fasted for 18 hours by use of the acute Fistula method as described by Hiramatsu et al. (Dig. Dis. Sci.,39, 689-697(1994)). Briefly, each rat was etherized lightly, and then a winged tubular needle filled with 3.8% citric acid solution was indwelled in the tail vein of the rat. The abdomen of the rat was opened, and the pyloric part of the stomach was ligated. Subsequently, a small hole was made in the duodenum, and the abdomen of the rat was closed with a feeding tube filled with saline indwelled. The inside of the stomach was washed with saline, a polyethylene-made Fistula tube (inner diameter: 4 mm) was set in the anterior stomach, and the cut portion of the anterior stomach was ligated and secured. The stomach and the duodenum were returned to the abdominal cavity, with the Fistula tube and the feeding tube exposed outside. The rat was placed in a Ballman cage II. Histamine was continuously administered through the winged injection needle which had been indwelled in the tail vein in advance (8 mg/kg/h, 1.38 mL/h). 15 Minutes thereafter, gastric juice of the rat was collected. Subsequently, collection of gastric juice was performed every one hour. Each time, the amount of the collected gastric juice was recorded, followed by titration with NaOH (0.1 mol/L) up to the end point pH 7.0. From the volume consumed for titration, acidity was calculated. The acid discharge amount was calculated as a product of the amount of the gastric juice and the acidity. Before starting the test, the rats were grouped so that the intra-group total amount of the gastric juice samples initially collected was the same between groups. Thereafter, each test drug was administered (2.5 mL/kg) in the duodenum through a feeding tube which had been attached to the duodenum in advance. To each rat of a control group, 0.5% Na-CMC solution was administered.
(3) Analysis of the Results
The data as obtained above are shown by way of mean±standard error. Total amount of acid discharge was obtained through summation of the amounts of acid discharge at three points in time; i.e., 3, 4 and 5 hours after initial collection of gastric juice. Percent inhibition of each group was computed from the total acid discharge amount of the control group and that of each group. On the basis of the percent inhibition calculated for each group, 50% effective dose (ED50) was computed by use of the Probit method.

T1 sequence (P33261 whole entry): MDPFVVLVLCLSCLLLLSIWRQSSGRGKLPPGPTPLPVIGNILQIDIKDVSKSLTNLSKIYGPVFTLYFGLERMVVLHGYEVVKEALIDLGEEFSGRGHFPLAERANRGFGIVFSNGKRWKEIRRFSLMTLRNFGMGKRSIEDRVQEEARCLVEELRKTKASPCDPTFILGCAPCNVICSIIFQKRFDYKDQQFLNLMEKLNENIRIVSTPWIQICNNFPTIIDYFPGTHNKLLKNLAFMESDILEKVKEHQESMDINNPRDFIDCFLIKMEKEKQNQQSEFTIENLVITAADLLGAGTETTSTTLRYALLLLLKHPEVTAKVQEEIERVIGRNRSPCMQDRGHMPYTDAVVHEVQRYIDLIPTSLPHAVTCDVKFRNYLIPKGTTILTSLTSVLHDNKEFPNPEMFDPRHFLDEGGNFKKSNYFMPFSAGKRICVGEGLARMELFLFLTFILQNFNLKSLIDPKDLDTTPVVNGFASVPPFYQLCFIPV

`[O-][S+](Cc1cc(OCCOCC(F)(F)F)ccn1)c1nc2ccccc2[nH]1` (single isomer, unassigned; (+)) [Example 14, (+)-2-{4-[2-(2,2,2-trifluoroethoxy)ethoxy]pyridin-2-yl-methanesulfinyl}-1H-benzimidazole]: in series [1], the “CYP2C19 residual activity (%)” value is recorded as 81.4%. Besides, the IC50 in series [2] came out at 6.67 µmol/L. In addition, the “Gastric-acid secretion inhibition action [ED50 (mg/kg)]” value in series [3] is listed as 0.42 mg/kg.

Turning to `[O-][S+](Cc1cc(OCCCC(F)(F)F)ccn1)c1nc2ccccc2[nH]1` (single isomer, unassigned; (+)) [Example 11, (+)-2-[4-(4,4,4-trifluorobutoxy)pyridin-2-yl-methanesulfinyl]-1H-benzimidazole], in series [2], the IC50 was 3.77 µmol/L. Besides, the “Gastric-acid secretion inhibition action [ED50 (mg/kg)]” value in series [3] stood at 0.50 mg/kg.

For the molecule `COc1c(OCCOCC(F)(F)F)ccnc1C[S+]([O-])c1nc2ccccc2[nH]1` (single isomer, unassigned; (-)) [Example 4, (−)-2-{3-methoxy-4-[2-(2,2,2-trifluoroethoxy)ethoxy]pyridin-2-yl-methylsulfinyl}-1H-benzimidazole], in series [1], the “CYP2C19 residual activity (%)” value was determined as 93.9%. Further, in series [2], the IC50 is 3.46 µmol/L. Moreover, the “Gastric-acid secretion inhibition action [ED50 (mg/kg)]” value in series [3] came to 2.6 mg/kg.

`COc1c(OCCCC(F)(F)F)ccnc1C[S+]([O-])c1nc2ccccc2[nH]1` (single isomer, unassigned; (+)) [Example 5(1), (+)-2-[3-methoxy-4-(4,4,4-trifluorobutoxy)pyridin-2-yl-methanesulfinyl]-1H-benzimidazole]: the “CYP2C19 residual activity (%)” value in series [1] was found to be 78.6%. Moreover, the IC50 in series [2] is 3.32 µmol/L. The ED50 (usually the dose that gives a 50% effect, or the effect in half of the subjects) in series [3] (Rattus norvegicus) was determined as 0.9 mg/kg.

As for `[O-][S+](Cc1cc(OCCOCC(F)(F)F)ccn1)c1nc2ccccc2[nH]1` (stereo not shown) [Example 12, 2-{4-[2-(2,2,2-trifluoroethoxy)ethoxy]pyridin-2-yl-methanesulfinyl}-1H-benzimidazole], the activity at 10 min, 10 µM in series [1] (human, pH 7.4, probe S-(+)-mephenytoin (to 4'-hydroxymephenytoin), read-out: CYP2C19 residual activity (%)) was 88.8%. For the same molecule, the IC50 in series [2] was 7.86 µmol/L.
